The source of these data is ChEMBL document CHEMBL1122202, “Ultra-short-acting beta-adrenergic receptor blocking agents. 1. (Aryloxy)propanolamines containing esters in the nitrogen substituent” (J Med Chem, 1982).

Assay [1] addresses Beta-1 adrenergic receptor (Cavia porcellus) (UniProt B0FL73). As to the kind of experiment: The compound was tested in vitro for its ability to block Beta-1 adrenergic receptor in guinea pig right atria; Inactive at 10E-5 M.
Assay [2] deals with Beta-2 adrenergic receptor (Cavia porcellus) (UniProt Q8K4Z4). As to the kind of experiment: The compound was tested in vitro for its ability to block Beta-2 adrenergic receptor in guinea pig trachea; Inactive at 10E-5 M. It counts as tissue-based.
The target of assay [3] is T1, Beta-1 adrenergic receptor (Cavia porcellus, UniProt B0FL73). As to the kind of experiment: In vitro ability to block beta-1 adrenergic receptor in guinea pig right atria. Conditions: read-out: pA2 (converted).
Assay [4] concerns the target Beta-1 adrenergic receptor (Cavia porcellus) (UniProt B0FL73). As to the kind of experiment: The compound was tested in vivo for its ability to block Beta-1 adrenergic receptor in guinea pig right atria at a duration of 3h. It is filed as functional, organism-based.
Assay [5] shares this target. Nature of the assay: In vivo inhibition of Beta-1 adrenergic receptor in guinea pig right atria after 40 min. It is filed as functional, organism-based.
Assay [6] has as its target T1, Beta-1 adrenergic receptor. As to the kind of experiment: The compound was tested in vitro for its ability to block Beta-1 adrenergic receptor in guinea pig right atria. The note with it: read-out: pA2 (converted).
The target in assay [7] is Beta-1 adrenergic receptor (Cavia porcellus) (UniProt B0FL73).
Description: The compound was tested in vivo for its ability to block Beta-1 adrenergic receptor in guinea pig right atria at a duration of 40 min
Assay [8] concerns the target Beta-2 adrenergic receptor (Cavia porcellus, UniProt Q8K4Z4). As to the kind of experiment: In vitro ability to block beta-2 adrenergic receptor in guinea pig trachea. It is filed as tissue-based. Conditions: read-out: pA2 (converted).
The nature of assay [9]: Cardioselectivity expressed as antilog of pA2 (atria)-pA2 (trachea).
The target in assay [10] is Beta-1 adrenergic receptor (Cavia porcellus) (UniProt B0FL73). As to the kind of experiment: The compound was tested in vivo for its ability to block […] adrenergic receptor n guinea pig right atria at a duration of 3h. It is filed as organism-based.
The target in assay [11] is Beta-2 adrenergic receptor (Cavia porcellus). Nature of the assay: The compound was tested in vitro for its ability to block beta-2-adrenergic receptor in guinea pig trachea. The note with it: read-out: pA2 (converted).
In assay [12] the target is T1, Beta-1 adrenergic receptor. Nature of the assay: The compound was tested in vitro for its ability to block Beta-1 adrenergic receptor n guinea pig trachea. It counts as tissue-based. Conditions: read-out: pA2 (converted).

Each structure is given as a SMILES string. The source made the active and inactive calls. No cut-off for these calls is given here.

Beta-2 adrenergic receptor, sequence (Q8K4Z4 whole entry): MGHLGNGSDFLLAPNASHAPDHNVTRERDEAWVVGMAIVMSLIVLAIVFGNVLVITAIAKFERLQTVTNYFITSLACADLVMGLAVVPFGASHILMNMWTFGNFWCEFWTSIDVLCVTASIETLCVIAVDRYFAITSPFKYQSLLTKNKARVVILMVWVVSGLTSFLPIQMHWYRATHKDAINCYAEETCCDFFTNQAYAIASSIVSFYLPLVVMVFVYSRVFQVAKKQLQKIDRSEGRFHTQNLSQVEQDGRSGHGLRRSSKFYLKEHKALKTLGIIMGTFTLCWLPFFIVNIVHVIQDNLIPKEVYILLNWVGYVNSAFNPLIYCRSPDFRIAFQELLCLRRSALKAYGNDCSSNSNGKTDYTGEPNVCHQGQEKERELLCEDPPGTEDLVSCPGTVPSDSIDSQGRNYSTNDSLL
T1 sequence (B0FL73 whole entry): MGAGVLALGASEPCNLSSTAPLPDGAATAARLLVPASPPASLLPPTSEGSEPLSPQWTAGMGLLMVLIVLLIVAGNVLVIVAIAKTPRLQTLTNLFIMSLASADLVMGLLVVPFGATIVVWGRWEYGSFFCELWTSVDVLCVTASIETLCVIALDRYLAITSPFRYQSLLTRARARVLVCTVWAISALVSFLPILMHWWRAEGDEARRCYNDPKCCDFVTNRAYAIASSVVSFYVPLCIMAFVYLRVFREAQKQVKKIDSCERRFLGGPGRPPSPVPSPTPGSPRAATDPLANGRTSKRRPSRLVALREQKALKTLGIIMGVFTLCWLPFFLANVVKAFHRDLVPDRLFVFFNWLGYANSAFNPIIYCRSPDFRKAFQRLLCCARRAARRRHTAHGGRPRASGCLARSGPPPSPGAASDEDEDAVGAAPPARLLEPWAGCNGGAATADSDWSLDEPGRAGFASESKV
Beta-1 adrenergic receptor (Cavia porcellus), sequence (B0FL73 1-467): as the sequence (B0FL73 whole entry) above
Beta-2 adrenergic receptor (Cavia porcellus) (UniProt Q8K4Z4), sequence (Q8K4Z4 whole entry, looked up): as the sequence (Q8K4Z4 whole entry) above

As for `O=C1CCCN1CC(O)COc1ccccc1` (stereo not given), the pA2 result in [1] and in assay [2] was “inactive” in each case.
For the compound `COC(=O)CCNCC(O)COc1ccccc1C` (stereo not given), the Kb in [3] is 0.0316 µM.
Turning to `CCOC(=O)CCNCC(O)COc1ccc(Cl)cc1` (stereo not given), the pA2 entry in assay [1] was “inactive”.
As for `CCOC(=O)CNCC(O)COc1ccccc1C` (stereo not given), the Kb in assay [3] is 1.26 µM.
Same read-out and setting: the value for `CCOC(=O)CCNCC(O)COc1cccc(OC)c1` (stereo not given) was 0.398 µM.
The compound `CCOC(=O)CCNCC(O)COc1cccc(Cl)c1` (stereo not given) came in with an In vivo duration in assay [4] greater than 60 min.
Consider `CCOC(=O)CCCCNCC(O)COc1ccccc1C` (stereo not given), for which the Kb in [3] was 0.0158 µM. For the same compound, in [5], the In vivo duration is 20 min.
In the case of `O=C(CCNCC(O)COc1ccccc1)Oc1ccc(F)cc1` (stereo not given), the Kb in assay [6] is 2 µM.
In turn, `CCOC(=O)CCNCC(O)COc1ccccc1` (stereo not given) returned an In vivo duration in assay [7] of 29 min.
Regarding `CCOC(=O)c1cccc(NCC(O)COc2ccccc2C)c1` (stereo not given), the Kb in assay [3] is 6.31 µM.
On to `NC(=O)CNCC(O)COc1cccc2ccccc12` (stereo not given), for which the Kb in assay [3] and in assay [8] was 0.631 µM in each case.
For the compound `CCOC(=O)CCNCC(O)COc1ccc(OC)cc1` (stereo not given), the Kb in [3] was 1.58 µM.
In the case of `CCOC(=O)CCNCC(O)COc1cccc2ccccc12` (stereo not given), the Kb was 0.0398 µM in assay [3] and 0.0501 µM in assay [8]. This compound also displayed an In vivo duration in [5] of 17 min.
With `NCC(O)COc1ccccc1` (stereo not given), the Kb in assay [3] was 0.126 µM; in assay [8], 1.26 µM. In addition, the Cardio selectivity in assay [9] stood at 10.
For `CCOC(=O)CCNCC(O)COc1ccccc1Cl` (stereo not given), the In vivo duration in assay [4] is greater than 60 min.
For `CC(C)CNCC(O)COc1ccccc1` (stereo not given), the values for the Kb in [3] and in [8] were 0.01 µM and 0.0398 µM, respectively. In assay [9], this compound registered a Cardio selectivity of 5.
As to `O=C(CCNCC(O)COc1ccccc1)Oc1ccccc1` (stereo not given), the Kb in [6] is 0.398 µM. In assay [10], this compound gave an In vivo duration greater than 60 min.
Consider `Cc1ccccc1OCC(O)CNCC(C)C` (stereo not given), for which the values for the Kb in [3] and in assay [8] were 0.00251 µM and 0.00631 µM, respectively.
In the case of `O=C(O)CNCC(O)COc1ccccc1` (stereo not given), the pA2 result in assay [1] and in [2] was “inactive” each time.
In the case of `CCOC(=O)CC(C)(C)NCC(O)COc1ccccc1C` (stereo not given), the Kb was 0.00316 µM in assay [3] and 0.00794 µM in [8]. Moreover, the In vivo duration in assay [4] was greater than 60 min.
Consider `COC(=O)CCNCC(O)COc1cccc2ccccc12` (stereo not given), for which, in [8], the Kb was 0.1 µM.
Consider `O=C1CCC(=O)N1CC(O)COc1ccccc1` (stereo not given), for which, in assay [1], the pA2 entry is “inactive”.
On to `O=C(CCNCC(O)COc1ccccc1)OCC(F)(F)F` (stereo not given), for which the Kb in assay [3] is 2 µM.
As for `CCOC(=O)CCNCC(O)COc1c(C)cccc1C` (stereo not given), the results for the Kb in assay [6] and in assay [8] were 0.794 µM and 1 µM, respectively.
`CCOC(=O)CCCNCC(O)COc1ccccc1C` (stereo not given): the In vivo duration in [4] is greater than 60 min; in [5] it was 15 min.
With `NCC(O)COc1cccc2ccccc12` (stereo not given), the Kb in assay [3] was 0.316 µM; in assay [8], 0.501 µM.
With `COc1ccc(CCOC(=O)CCNCC(O)COc2ccccc2)cc1OC` (stereo not given), the Kb in assay [3] is 0.1 µM; in [11], 0.251 µM.
`CCOC(=O)CCNCC(O)COc1ccccc1C` (stereo not given): the Kb in assay [3] is 0.0316 µM. The In vivo duration in [5] worked out at 14 min.
In the case of `CCOC(=O)c1ccc(CNCC(O)COc2ccccc2C)cc1` (stereo not given), the Kb in assay [3] was 0.251 µM; in assay [12], 1.26 µM. Further, in assay [9], the Cardio selectivity came to 5.
As to `CCOC(=O)CCNCC(O)COc1cccc(C)c1` (stereo not given), in assay [3], the Kb is 0.2 µM.
For the compound `CC(C)CNCC(O)COc1cccc2ccccc12` (stereo not given), the Kb in assay [3] was 0.002 µM; in assay [8], 0.00126 µM. Moreover, the results for the In vivo duration in assay [4] and in [5] were greater than 60 min and 46 min, respectively.
In assay [5], `CCOC(=O)CNCC(O)COc1cccc2ccccc12` (stereo not given) displayed an In vivo duration of 53 min.
As for `COC(=O)CNCC(O)COc1ccccc1C` (stereo not given), the figures for the Kb in [3] and in assay [8] were 3.16 µM and 2 µM, respectively.
With `CCOC(=O)C(NCC(O)COc1ccccc1C)C(=O)OCC` (stereo not given), the Kb in assay [3] is 1.26 µM.
In the case of `CCOC(=O)c1ccc(NCC(O)COc2ccccc2C)cc1` (stereo not given), the Kb in [3] was 7.94 µM.
